From ChEMBL document CHEMBL4011611, “Plumbagin reduces osteopontin-induced invasion through inhibiting the Rho-associated kinase signaling pathway in A549 cells and suppresses osteopontin-induced lung metastasis in BalB/c mice” (Bioorg Med Chem Lett, 2017)
Activity calls are given as the source filed them. No cut-off for these calls is given here.

Experiments:
[1] = Cytotoxicity against human A549 cells after 24 hrs by MTT assay; assay type: cell-based; conditions: read-out: MNCC
[2] = tested on: A549; assay: Cytotoxicity against human A549 cells assessed as reduction in cell viability at 2 to 8 uM after 24 hrs by MTT assay; assay type: cell-based; conditions: a549, 24 h
[3] = tested on: A549; assay: Inhibition of FAK/AKT/ROCK in human A549 cells assessed as reduction in osteopontin-induced cell motility at 1 uM preincubated for 30 mins followed by osteopontin addition measured after 24 hrs by Diff-quick staining based matrigel-mediated Boyden chamber assay relative to control
[4] = tested on: A549; assay: Inhibition of FAK/AKT/ROCK in human A549 cells assessed as reduction in osteopontin-induced cell motility at 2 uM preincubated for 30 mins followed by osteopontin addition measured after 24 hrs by Diff-quick staining based matrigel-mediated Boyden chamber assay relative to control
[5] = species: Homo sapiens; assay: Inhibition of FAK/AKT/ROCK in human H1299 cells assessed as reduction in osteopontin-induced cell motility at 1 to 2 uM preincubated for 30 mins followed by osteopontin addition measured after 24 hrs by Diff-quick staining based matrigel-mediated Boyden chamber assay
[6] = species: Homo sapiens; assay: Inhibition of FAK/AKT/ROCK in human H1299 cells assessed as reduction in osteopontin-induced cell invasion at 1 to 2 uM preincubated for 30 mins followed by osteopontin addition measured after 24 hrs by Diff-quick staining based matrigel-mediated Boyden chamber assay
[7] = tested on: A549; assay: Inhibition of FAK/AKT/ROCK in human A549 cells assessed as reduction in osteopontin-induced cell invasion at 1 uM preincubated for 30 mins followed by osteopontin addition measured after 24 hrs by Diff-quick staining based matrigel-mediated Boyden chamber assay relative to control
[8] = tested on: A549; assay: Effect on total FAK expression levels in human A549 cells at 1 to 2 uM measured after 15 mins by Western blot method; assay type: ADME, cell-based; conditions: a549, 0.25 h
[9] = tested on: A549; assay: Inhibition of FAK/AKT/ROCK in human A549 cells assessed as reduction in osteopontin-induced cell invasion at 2 uM preincubated for 30 mins followed by osteopontin addition measured after 24 hrs by Diff-quick staining based matrigel-mediated Boyden chamber assay relative to control
[10] = tested on: A549; assay: Effect on total AKT expression level in human A549 cells at 1 to 2 uM after 15 mins by Western blot method; assay type: ADME, cell-based; conditions: a549, 0.25 h
[11] = tested on: A549; assay: Inhibition of FAK/AKT/ROCK in human A549 cells assessed as reduction in osteopontin-induced lamellipodia formation at 2 uM after 24 hrs by rhodamine phalloidin/DAPI staining based confocal microscopic analysis; assay type: cell-based
[12] = tested on: A549; assay: Effect on total cofilin protein expression level in human A549 cells at 1 to 2 uM after 24 hrs by Western blot method; assay type: ADME, cell-based; conditions: a549, 24 h
[13] = tested on: A549; assay: Anti-invasive activity in human A549 cells assessed as reduction in osteopontin-induced ROCK1 expression after 24 hrs by Western blot method; assay type: functional, cell-based
[14] = tested on: A549; assay: Inhibition of FAK/AKT/ROCK in human A549 cells assessed as reduction in osteopontin-induced LIMK1/2 phosphorylation after 24 hrs by Western blot method; assay type: cell-based
[15] = tested on: A549; assay: Inhibition of FAK/AKT/ROCK in human A549 cells assessed as reduction in osteopontin-induced cofilin phosphorylation after 24 hrs by Western blot method; assay type: cell-based
[16] = tested on: A549; assay: Effect on total LIMK2 expression level in human A549 cells at 1 to 2 uM after 24 hrs by Western blot method; assay type: ADME, cell-based; conditions: a549, 24 h
[17] = biological target: Focal adhesion kinase 1 (Homo sapiens) (UniProt Q05397); assay: Inhibition of osteopontin-induced FAK phosphorylation in human A549 cells at 1 to 2 uM after 15 mins by Western blot method; assay type: cell-based
[18] = biological target: RAC-alpha serine/threonine-protein kinase (Homo sapiens) (UniProt P31749); assay: Inhibition of osteopontin-induced AKT phosphorylation in human A549 cells at 1 to 2 uM after 15 mins by Western blot method; assay type: cell-based
[19] = tested on: Mus musculus; assay: Toxicity in BalB/c nude mouse assessed as change in body weight at 5 mg/kg, ip administered once daily for 8 weeks measured every week of compound dosing; assay type: organism-based; conditions: in vivo, 1344 h
[20] = tested on: A549; assay: Anticancer activity against human A549 cells xenografted in BalB/c nude mouse assessed as reduction in osteopontin-induced lung metastasis at 5 mg/kg, ip administered once daily for 8 weeks by India ink staining based method; assay type: functional, organism-based

RAC-alpha serine/threonine-protein kinase (Homo sapiens), sequence (P31749 whole entry): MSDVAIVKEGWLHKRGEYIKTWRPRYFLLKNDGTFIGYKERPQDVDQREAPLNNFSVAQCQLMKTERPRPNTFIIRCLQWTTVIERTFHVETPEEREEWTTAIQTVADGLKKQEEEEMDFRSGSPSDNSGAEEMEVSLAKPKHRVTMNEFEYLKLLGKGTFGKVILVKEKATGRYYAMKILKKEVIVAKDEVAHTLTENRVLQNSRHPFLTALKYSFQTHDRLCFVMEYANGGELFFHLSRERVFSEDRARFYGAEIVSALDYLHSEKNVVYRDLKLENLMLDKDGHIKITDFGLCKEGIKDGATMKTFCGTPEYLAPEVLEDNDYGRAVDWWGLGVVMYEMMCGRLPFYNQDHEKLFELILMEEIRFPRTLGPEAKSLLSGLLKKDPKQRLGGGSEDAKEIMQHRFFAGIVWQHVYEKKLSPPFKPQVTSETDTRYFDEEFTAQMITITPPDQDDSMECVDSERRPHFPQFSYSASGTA
Focal adhesion kinase 1 (Homo sapiens), sequence (Q05397 2-1052 limits assumed): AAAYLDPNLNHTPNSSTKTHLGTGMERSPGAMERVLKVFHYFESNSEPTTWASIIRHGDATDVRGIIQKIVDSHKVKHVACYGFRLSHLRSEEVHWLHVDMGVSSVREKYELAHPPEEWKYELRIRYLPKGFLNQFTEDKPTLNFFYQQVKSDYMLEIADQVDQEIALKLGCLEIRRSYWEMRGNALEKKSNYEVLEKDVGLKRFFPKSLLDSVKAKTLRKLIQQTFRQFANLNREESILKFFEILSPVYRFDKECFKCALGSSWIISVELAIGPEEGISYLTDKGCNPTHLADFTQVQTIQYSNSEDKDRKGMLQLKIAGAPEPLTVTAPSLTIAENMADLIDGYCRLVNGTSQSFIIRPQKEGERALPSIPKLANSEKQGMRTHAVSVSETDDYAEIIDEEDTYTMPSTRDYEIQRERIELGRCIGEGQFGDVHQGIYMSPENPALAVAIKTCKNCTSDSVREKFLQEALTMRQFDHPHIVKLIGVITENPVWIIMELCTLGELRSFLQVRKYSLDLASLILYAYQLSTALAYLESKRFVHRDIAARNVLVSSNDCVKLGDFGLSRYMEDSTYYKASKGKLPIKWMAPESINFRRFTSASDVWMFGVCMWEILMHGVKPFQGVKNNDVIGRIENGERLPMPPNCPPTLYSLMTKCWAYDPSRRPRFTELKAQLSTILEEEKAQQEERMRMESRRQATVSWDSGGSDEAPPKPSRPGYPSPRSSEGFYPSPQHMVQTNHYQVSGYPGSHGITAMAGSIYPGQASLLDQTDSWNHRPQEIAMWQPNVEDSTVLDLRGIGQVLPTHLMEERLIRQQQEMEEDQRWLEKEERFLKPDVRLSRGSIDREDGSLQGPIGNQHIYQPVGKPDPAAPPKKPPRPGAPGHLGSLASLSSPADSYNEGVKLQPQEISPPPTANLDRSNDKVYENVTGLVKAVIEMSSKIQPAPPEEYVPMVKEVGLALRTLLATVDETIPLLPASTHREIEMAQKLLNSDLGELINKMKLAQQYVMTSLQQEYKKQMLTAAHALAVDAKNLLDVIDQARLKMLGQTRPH

CC1=CC(=O)c2c(O)cccc2C1=O [PLUMBAGIN]
MNTC at 24 h [1]: ≤ 2000 nM
Activity [2]: Dose-dependent effect
inhibition [3]: 52%
inhibition [4]: 74%
inhibition [5]: Active
inhibition [6]: Active
inhibition [7]: 38%
Activity [8]: Non-Toxic
inhibition [9]: 67%
Activity [10]: Non-Toxic
inhibition [11]: Active
Activity [12]: Non-Toxic
Activity [13]: Dose-dependent effect
inhibition [14]: Dose-dependent effect
inhibition [15]: Dose-dependent effect
Activity [16]: Non-Toxic
inhibition [17]: Active
inhibition [18]: Active
Activity [19]: Non-Toxic
Activity [20]: Active
